Assay results as given in patent publication US10597388B2, “Pyridazinone herbicides” (FMC CORPORATION, priority 2014, dated 2020).

Experiments:
Format in all cases: in vivo
[1] = test system: kochia (Kochia scoparia); assay: Test A greenhouse herbicide test, pre- and postemergence
In short: (§1)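 Visual injury ratings, 0 (no effect) to 100 (complete control), versus untreated plants after roughly 10 d in a greenhouse. Compounds, formulated in a surfactant-containing non-phytotoxic solvent, were sprayed on loam–sand soil after sowing (pre) or on one- to two-leaf plants 2–10 cm tall (post).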

[2] = test system: wheat (Triticum aestivum); assay: as above; conditions: Postemergence
In short: as §1

[3] = test system: pigweed (Amaranthus retroflexus); assay: as above
In short: as §1

[4] = test system: ragweed (common ragweed, Ambrosia elatior); assay: as above
In short: as §1

[5] = test system: corn (Zea mays); assay: as above; conditions: Postemergence
In short: as §1

[6] = test system: ryegrass, Italian (Italian ryegrass, Lolium multiflorum); assay: as above
In short: as §1

[7] = test system: foxtail, giant (giant foxtail, Setaria faberii); assay: as above
In short: as §1

[8] = test system: oilseed rape (Brassica napus); assay: Test C greenhouse herbicide test, pre- and postemergence
In short: (§2)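 Visual 0–100 injury score (100 = complete control) taken against untreated controls after 13–15 d in greenhouse. Test chemicals, formulated in solvent plus surfactant, applied preemergence to seeds in loam–sand soil or postemergence to 1- to 4-leaf plants (2–18 cm).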

[9] = test system: nutsedge, yellow (yellow nutsedge, Cyperus esculentus); assay: as above
In short: as §2

[10] = test system: velvetleaf (Abutilon theophrasti); assay: as above
In short: as §2

[11] = test system: galium (catchweed bedstraw, Galium aparine); assay: as above
In short: as §2

[12] = Postemergence, 125 g ai/ha, 0 to 100 scale where 0 is no effect and 100 is complete control
[13] = Postemergence, 500 g ai/ha, visual rating after approx. 10 d, 0 to 100 scale (0 no effect, 100 complete control)
[14] = Preemergence, 125 g ai/ha, 0 to 100 scale where 0 is no effect and 100 is complete control
[15] = Preemergence, 500 g ai/ha, 0 to 100 scale where 0 is no effect and 100 is complete control
[16] = 125 g ai/ha, 0 to 100 scale where 0 is no effect and 100 is complete control
[17] = 500 g ai/ha, visual rating after approx. 10 d, 0 to 100 scale (0 no effect, 100 complete control)
[18] = Postemergence, 31 g ai/ha, scale 0 to 100 (0 no effect, 100 complete control)
[19] = Postemergence, 62 g ai/ha, 0 to 100 scale (0 no effect, 100 complete control)
[20] = Postemergence, 250 g ai/ha, scale 0 to 100, 0 no effect, 100 complete control, 13 to 15 d
[21] = Preemergence, 31 g ai/ha, scale 0 to 100, 0 is no effect, 100 is complete control
[22] = Preemergence, 62 g ai/ha, scale 0 to 100, 0 is no effect, 100 is complete control
[23] = Preemergence, 125 g ai/ha, scale 0 to 100, 0 is no effect, 100 is complete control
[24] = Preemergence, 250 g ai/ha, scale 0 to 100 (0 no effect, 100 complete control)
[25] = postemergence, 125 g ai/ha, scale 0 to 100, 0 no effect, 100 complete control
[26] = Postemergence, 16 g ai/ha, scale 0 to 100 (0 no effect, 100 complete control)
[27] = Postemergence, 125 g ai/ha, 0 to 100 scale, 0 no effect, 100 complete control
[28] = Preemergence, 125 g ai/ha, visual injury rating, 0 to 100 scale (0 no effect, 100 complete control), approx. 10 d
[29] = 125 g ai/ha, 0 to 100 scale, 0 no effect, 100 complete control

COc1nn(C)c(=O)c(-c2c(C)ccc3ccccc23)c1OC(C)=O [Compound 138]
Plant response rating, Kochia [1, 12]: 100
Plant response rating, Kochia [1, 13]: 100
Kochia plant response rating [1, 14]: 40
Plant response rating, Kochia [1, 15]: 100
Plant response rating, Wheat [2, 16]: 0
Plant response rating, Wheat [2, 17]: 20
Plant response rating, Pigweed [3, 12]: 90
Plant response rating, Pigweed [3, 13]: 100
Pigweed plant response rating [3, 14]: 100
Plant response rating, Pigweed [3, 15]: 100
Plant response rating, Ragweed [4, 12]: 100
Plant response rating, Ragweed [4, 13]: 100
Plant response rating, Ragweed [4, 15]: 100
Plant response rating, Corn [5, 16]: 0
Plant response rating, Corn [5, 17]: 20
Plant response rating, Ryegrass, Italian [6, 12]: 90
Plant response rating, Ryegrass, Italian [6, 13]: 100
Plant response rating, Ryegrass, Italian [6, 15]: 100
Plant response rating, Foxtail, Giant [7, 12]: 90
Plant response rating, Foxtail, Giant [7, 13]: 100
Foxtail, Giant plant response rating [7, 14]: 90
Plant response rating, Foxtail, Giant [7, 15]: 100
Plant response rating, Oilseed Rape [8, 18]: 95
Oilseed Rape plant response rating [8, 19]: 98
Plant response rating, Oilseed Rape [8, 20]: 98
Plant response rating, Oilseed Rape [8, 21]: 85
Plant response rating, Oilseed Rape [8, 22]: 90
Plant response rating, Oilseed Rape [8, 23]: 90
Oilseed Rape plant response rating [8, 24]: 100
Oilseed Rape plant response rating [8, 25]: 98
Plant response rating, Nutsedge, Yellow [9, 18]: 45
Nutsedge, Yellow plant response rating [9, 19]: 65
Plant response rating, Nutsedge, Yellow [9, 20]: 80
Plant response rating, Nutsedge, Yellow [9, 21]: 5
Plant response rating, Nutsedge, Yellow [9, 22]: 60
Plant response rating, Nutsedge, Yellow [9, 23]: 95
Nutsedge, Yellow plant response rating [9, 24]: 90
Nutsedge, Yellow plant response rating [9, 25]: 75
Plant response rating, Velvetleaf [10, 18]: 85
Velvetleaf plant response rating [10, 19]: 90
Plant response rating, Velvetleaf [10, 20]: 98
Plant response rating, Velvetleaf [10, 21]: 85
Plant response rating, Velvetleaf [10, 22]: 90
Plant response rating, Velvetleaf [10, 23]: 98
Velvetleaf plant response rating [10, 24]: 100
Velvetleaf plant response rating [10, 25]: 95
Plant response rating, Galium [11, 18]: 90
Galium plant response rating [11, 19]: 90
Plant response rating, Galium [11, 20]: 95
Plant response rating, Galium [11, 21]: 95
Plant response rating, Galium [11, 22]: 98
Plant response rating, Galium [11, 23]: 98
Galium plant response rating [11, 24]: 98
Galium plant response rating [11, 25]: 95

COC(=O)Oc1cnn(C)c(=O)c1-c1c(C)ccc2ccccc12 [Compound 143]
Plant response rating, Kochia [1, 12]: 70
Plant response rating, Kochia [1, 13]: 90
Kochia plant response rating [1, 14]: 10
Plant response rating, Kochia [1, 15]: 70
Plant response rating, Wheat [2, 16]: 0
Plant response rating, Wheat [2, 17]: 50
Plant response rating, Pigweed [3, 12]: 90
Plant response rating, Pigweed [3, 13]: 90
Pigweed plant response rating [3, 14]: 80
Plant response rating, Pigweed [3, 15]: 100
Plant response rating, Ragweed [4, 12]: 70
Plant response rating, Ragweed [4, 13]: 70
Plant response rating, Ragweed [4, 15]: 90
Plant response rating, Corn [5, 16]: 0
Plant response rating, Corn [5, 17]: 20
Plant response rating, Ryegrass, Italian [6, 12]: 80
Plant response rating, Ryegrass, Italian [6, 13]: 100
Plant response rating, Ryegrass, Italian [6, 15]: 100
Plant response rating, Foxtail, Giant [7, 12]: 20
Plant response rating, Foxtail, Giant [7, 13]: 60
Foxtail, Giant plant response rating [7, 14]: 20
Plant response rating, Foxtail, Giant [7, 15]: 70
Plant response rating, Oilseed Rape [8, 26]: 60
Plant response rating, Oilseed Rape [8, 18]: 0
Oilseed Rape plant response rating [8, 19]: 0
Oilseed Rape plant response rating [8, 25]: 5
Plant response rating, Nutsedge, Yellow [9, 26]: 10
Plant response rating, Nutsedge, Yellow [9, 18]: 10
Nutsedge, Yellow plant response rating [9, 19]: 40
Nutsedge, Yellow plant response rating [9, 25]: 35
Plant response rating, Velvetleaf [10, 26]: 30
Plant response rating, Velvetleaf [10, 18]: 20
Velvetleaf plant response rating [10, 19]: 25
Velvetleaf plant response rating [10, 25]: 50
Plant response rating, Galium [11, 26]: 60
Plant response rating, Galium [11, 18]: 65
Galium plant response rating [11, 19]: 90
Galium plant response rating [11, 25]: 90

CC(=O)Oc1c(C)nn(C)c(=O)c1-c1c(C)cc(C)c2ccccc12 [Compound 153]
Plant response rating, Kochia [1, 27]: 40
Plant response rating, Kochia [1, 13]: 90
Plant response rating, Kochia [1, 28]: 80
Plant response rating, Kochia [1, 15]: 90
Plant response rating, Wheat [2, 29]: 0
Plant response rating, Wheat [2, 17]: 30
Plant response rating, Pigweed [3, 27]: 80
Plant response rating, Pigweed [3, 13]: 100
Plant response rating, Pigweed [3, 28]: 100
Plant response rating, Pigweed [3, 15]: 100
Plant response rating, Ragweed [4, 27]: 80
Plant response rating, Ragweed [4, 13]: 90
Plant response rating, Ragweed [4, 28]: 80
Plant response rating, Ragweed [4, 15]: 90
Plant response rating, Corn [5, 29]: 0
Plant response rating, Corn [5, 17]: 80
Plant response rating, Ryegrass, Italian [6, 27]: 100
Plant response rating, Ryegrass, Italian [6, 13]: 100
Plant response rating, Ryegrass, Italian [6, 28]: 100
Plant response rating, Ryegrass, Italian [6, 15]: 100
Plant response rating, Foxtail, Giant [7, 27]: 90
Plant response rating, Foxtail, Giant [7, 13]: 90
Plant response rating, Foxtail, Giant [7, 28]: 100
Plant response rating, Foxtail, Giant [7, 15]: 100
Plant response rating, Oilseed Rape [8, 18]: 90
Oilseed Rape plant response rating [8, 19]: 90
Plant response rating, Oilseed Rape [8, 20]: 90
Plant response rating, Oilseed Rape [8, 21]: 95
Plant response rating, Oilseed Rape [8, 22]: 100
Plant response rating, Oilseed Rape [8, 23]: 98
Oilseed Rape plant response rating [8, 24]: 100
Oilseed Rape plant response rating [8, 25]: 90
Plant response rating, Nutsedge, Yellow [9, 18]: 85
Nutsedge, Yellow plant response rating [9, 19]: 90
Plant response rating, Nutsedge, Yellow [9, 20]: 90
Plant response rating, Nutsedge, Yellow [9, 21]: 80
Plant response rating, Nutsedge, Yellow [9, 22]: 85
Plant response rating, Nutsedge, Yellow [9, 23]: 80
Nutsedge, Yellow plant response rating [9, 24]: 95
Nutsedge, Yellow plant response rating [9, 25]: 95
Plant response rating, Velvetleaf [10, 18]: 85
Velvetleaf plant response rating [10, 19]: 85
Plant response rating, Velvetleaf [10, 20]: 95
Plant response rating, Velvetleaf [10, 21]: 85
Plant response rating, Velvetleaf [10, 22]: 90
Plant response rating, Velvetleaf [10, 23]: 95
Velvetleaf plant response rating [10, 24]: 90
Velvetleaf plant response rating [10, 25]: 90
Plant response rating, Galium [11, 18]: 95
Galium plant response rating [11, 19]: 95
Plant response rating, Galium [11, 20]: 98
Plant response rating, Galium [11, 21]: 95
Plant response rating, Galium [11, 22]: 98
Plant response rating, Galium [11, 23]: 100
Galium plant response rating [11, 24]: 100
Galium plant response rating [11, 25]: 98
